Literature values, collected in article PMC7148434, “ACE-domain selectivity extends beyond direct interacting residues at the active site” (Biochemical Journal, 2020).
“And” between values parts separate entries of the source, which are not always exact repeats. Equal values may be shown once.

What was measured:
[1] = target: S2-nACE (Y369F and R381E) (Homo sapiens, UniProt P12821, R410E/Y398F); set-up: The truncated (single domain) wild-type N-domain (nACE), wild-type C-domain (cACE) and N-domain mutant constructs; made in house; host or cells: CHO-K1; details: cited from earlier work
[2] = target: S2_S′-nACE (S260T, E262S, D354E, S357V, T358V, Y369F, R381E and E431D) (Homo sapiens, UniProt P12821, D383E/E291S/E460D/R410E/S289T/S386V/T387V/Y398F); set-up: The truncated (single domain) wild-type N-domain (nACE), wild-type C-domain (cACE) and N-domain mutant constructs; made in house; host or cells: CHO-K1; details: cited from earlier work
[3] = target: nACE (Homo sapiens, UniProt P12821); set-up: The truncated (single domain) wild-type N-domain (nACE), wild-type C-domain (cACE) and N-domain mutant constructs; made in house; host or cells: CHO-K1; details: nACE; ref Lubbe et al. [23]; cited from earlier work
[4] = target: S′-nACE (S260T, E262S, D354E, S357V, T358V and E431D) (Homo sapiens, UniProt P12821, D383E/E291S/E460D/S289T/S386V/T387V); set-up: The truncated (single domain) wild-type N-domain (nACE), wild-type C-domain (cACE) and N-domain mutant constructs; made in house; host or cells: CHO-K1; details: cited from earlier work
[5] = target: cACE (Homo sapiens, UniProt P12821); set-up: The truncated (single domain) wild-type N-domain (nACE), wild-type C-domain (cACE) and N-domain mutant constructs; made in house; host or cells: CHO-K1; method as in Lubbe et al. [23]; details: ref Lubbe et al. [23]; cited from earlier work
[6] = test system: nACE; details: cited from earlier work

Sequence of S′-nACE (S260T, E262S, D354E, S357V, T358V and E431D) (P12821 40-624 S289T/E291S/D383E/S386V/T387V/E460D): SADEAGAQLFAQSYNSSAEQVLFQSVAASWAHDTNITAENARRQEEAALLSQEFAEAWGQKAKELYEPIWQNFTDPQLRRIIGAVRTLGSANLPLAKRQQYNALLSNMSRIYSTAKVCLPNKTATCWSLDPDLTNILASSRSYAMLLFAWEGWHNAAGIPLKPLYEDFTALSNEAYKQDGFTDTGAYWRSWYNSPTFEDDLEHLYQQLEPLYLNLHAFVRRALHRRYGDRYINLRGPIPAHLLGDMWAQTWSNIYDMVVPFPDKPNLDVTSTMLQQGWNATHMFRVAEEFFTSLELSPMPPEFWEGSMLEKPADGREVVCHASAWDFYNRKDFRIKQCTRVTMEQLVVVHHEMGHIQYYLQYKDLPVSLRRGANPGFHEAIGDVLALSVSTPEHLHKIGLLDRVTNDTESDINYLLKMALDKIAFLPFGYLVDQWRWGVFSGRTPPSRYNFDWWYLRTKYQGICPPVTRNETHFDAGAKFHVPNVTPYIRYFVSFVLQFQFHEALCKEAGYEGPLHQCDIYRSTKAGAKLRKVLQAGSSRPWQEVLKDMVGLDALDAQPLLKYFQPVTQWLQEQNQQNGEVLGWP
Sequence of S2-nACE (Y369F and R381E) (P12821 40-624 Y398F/R410E): as the sequence (P12821 40-624 S289T/E291S/D383E/S386V/T387V/E460D) above, with T250S, S252E, E344D, V347S, V348T, Y359F, R371E, D421E counted along it
Sequence of S2_S′-nACE (S260T, E262S, D354E, S357V, T358V, Y369F, R381E and E431D) (P12821 40-624 S289T/E291S/D383E/S386V/T387V/Y398F/R410E/E460D): as the sequence (P12821 40-624 S289T/E291S/D383E/S386V/T387V/E460D) above, with Y359F, R371E counted along it
Sequence of cACE (P12821 643-1222 limits assumed): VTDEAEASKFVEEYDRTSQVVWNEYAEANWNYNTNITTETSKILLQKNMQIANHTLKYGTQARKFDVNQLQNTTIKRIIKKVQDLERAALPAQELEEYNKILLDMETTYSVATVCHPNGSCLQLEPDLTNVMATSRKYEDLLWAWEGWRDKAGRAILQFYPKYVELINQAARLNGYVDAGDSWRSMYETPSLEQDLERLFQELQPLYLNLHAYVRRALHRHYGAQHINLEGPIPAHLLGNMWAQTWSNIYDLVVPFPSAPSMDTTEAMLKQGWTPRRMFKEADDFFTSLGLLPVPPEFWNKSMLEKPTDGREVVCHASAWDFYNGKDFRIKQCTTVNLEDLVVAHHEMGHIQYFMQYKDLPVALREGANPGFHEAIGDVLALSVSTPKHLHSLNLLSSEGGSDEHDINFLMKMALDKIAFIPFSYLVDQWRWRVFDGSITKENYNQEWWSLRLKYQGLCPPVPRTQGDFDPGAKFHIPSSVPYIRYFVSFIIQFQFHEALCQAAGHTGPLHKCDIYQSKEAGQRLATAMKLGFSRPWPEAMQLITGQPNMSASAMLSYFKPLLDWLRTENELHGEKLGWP
Sequence of nACE (Homo sapiens, UniProt P12821) (P12821 40-624 limits assumed): as the sequence (P12821 40-624 S289T/E291S/D383E/S386V/T387V/E460D) above, with T250S, S252E, E344D, V347S, V348T, D421E counted along it

In the case of `C[C@H](CP(=O)(O)[C@H](Cc1ccccc1)NC(=O)C(N)Cc1nnn[nH]1)C(=O)N[C@@H](C)C(N)=O` (stereo partly drawn) [33RE], the “Selectivity (Ki cACE/Ki nACE or mutant)” value ([1]; Ki cACE / Ki S2-nACE, ref Lubbe et al. [23]) is listed as 4, the “decrease in binding affinity compared with nACE” value (from here on “decrease in binding affinity”) ([1]; S2-nACE relative to nACE) is listed as 254 fold and the Ki ([1]; S2-nACE, ref Lubbe et al. [23]) is listed as 2790 ± 156 nM. The “Selectivity (Ki cACE/Ki nACE or mutant)” value ([2]; Ki cACE / Ki S2_S′-nACE, ref Lubbe et al. [23]) was 1.1, the “decrease in binding affinity” value ([2]; S2_S′-nACE relative to nACE) was 900 fold and the Ki [3] was 11.2 ± 0.735 nM. For the same molecule, the “Selectivity (Ki cACE/Ki nACE or mutant)” value ([4]; Ki cACE / Ki S′-nACE, ref Lubbe et al. [23]) was 48, the “decrease in binding affinity” value ([4]; S′-nACE relative to nACE) was 22 fold and the Ki ([4]; S′-nACE, ref Lubbe et al. [23]) was 237 ± 13.6 nM. The “Selectivity (Ki cACE/Ki nACE or mutant)” value [5] was 1, the “Selectivity (Ki cACE/Ki nACE or mutant)” value ([6]; Ki cACE / Ki nACE (N-selectivity), ref Lubbe et al. [23]) was 1000 and 1006 and the “selectivity over cACE” value ([6]; nACE over cACE, previous kinetic studies) was ~1000 fold.
